Data taken from patent US20230123585A1, “COMPOSITIONS AND METHODS FOR TREATING OR PREVENTING CANCER USING DEUBIQUITINASE INHIBITORS” (The University of Chicago, priority 2020, published 2023).

How the values were obtained:
Format in all cases: cell-based
PDAC cell lines = test: Inhibition rates of JQ1 in a panel of 9 PDAC cell lines
Text: (§1) FIGS. 15A-15D: The results of the inhibition rates of JQ1 in different PDAC cell lines. (B) The correlation analysis of gene expression of BRD family genes and METTL3 in PDAC from TGCA and GTEx database. (C) The polyA RNA m6A level changes upon JQ1 treatment compared to the DMSO control in different PDAC cell lines. (D) The cell viability changes with JQ1 treatment with a series concentrations in the JQ1-insensitive cells upon the knockdown of METTL3 and the JQ1-sensitive cells upon the overexpression of METTL3 compared to control.

METTL3 in 8902 cell line = test: METTL3 RNA and protein level changes with JQ1 treatment in JQ1-insensitive cells; details: 8902 cell line (JQ1-insensitive)
Text: (§2) FIGS. 16A-16B: (A) The protein level changes of METTL3 with JQ1 treatment in the JQ1-insensitive cells compared to DMSO control (left); the RNA level changes of METTL3 the JQ1-insensitive cells with JQ1 treatment compared to DMSO control (mid); the polyA RNA m6A level changes in JQ1-insensitive cells among the knockdown control and DMSO control samples, the knockdown control and JQ1 treatment samples, the METTL3 knockdown and DMSO control, and the METTL3 knockdown and JQ1 treatment samples (right). (B) The protein level changes of METTL3 with JQ1 treatment in the JQ1-sensitive cells compared to DMSO control (left); the RNA level changes of METTL3 the JQ1-sensitive cells with JQ1 treatment compared to DMSO control (mid); the polyA RNA m6A level changes in JQ1-sensitive cells among the knockdown control and DMSO control samples, the knockdown control and JQ1 treatment samples, the METTL3 knockdown and DMSO control, and the METTL3 knockdown and JQ1 treatment samples (right).

[1] = test system: polyA RNA m^6A in JQ1-sensitive cells (Mia cell); test: polyA RNA m^6A level upon JQ1 treatment in JQ1-sensitive PDAC cells
Text: (§3) FIGS. 15A-15D: The results of the inhibition rates of JQ1 in different PDAC cell lines. (B) The correlation analysis of gene expression of BRD family genes and METTL3 in PDAC from TGCA and GTEx database. (C) The polyA RNA m6A level changes upon JQ1 treatment compared to the DMSO control in different PDAC cell lines. (D) The cell viability changes with JQ1 treatment with a series concentrations in the JQ1-insensitive cells upon the knockdown of METTL3 and the JQ1-sensitive cells upon the overexpression of METTL3 compared to control. […]
(§4) LC-MS/MS quantification of m^6A in poly(A) RNA. mRNA was extracted from the total RNA using 2 rounds of the Dynabeads mRNA purification kit. […] The nucleosides were quantified by using the nucleoside-to-base ion mass transitions of 282 to 150 (m^6A) and 268 to 136 (A). Quantification was carried out by comparison with a standard curve obtained from pure nucleoside. The ratio of m^6A to A was calculated based on the calibrated concentrations (Liu et al., 2018).

JQ1-sensitive PDAC cells = test: Cell viability with JQ1 in JQ1-sensitive cells upon overexpression of METTL3; details: series of JQ1 concentrations
Text: as §1

[2] = test system: JQ1-insensitive PDAC cells; test: Cell viability with JQ1 in JQ1-insensitive cells upon knockdown of METTL3; details: series of JQ1 concentrations
Text: as §1

[3] = test system: polyA RNA m^6A in JQ1-insensitive cells (8902 cell line); test: polyA RNA m^6A level upon JQ1 treatment in JQ1-insensitive PDAC cells
Text: as §3, §4

METTL3 in Mia cell = test: METTL3 RNA and protein level changes with JQ1 treatment in JQ1-sensitive cells; details: dose-dependent
Text: as §2

Compound: Cc1sc2c(c1C)C(c1ccc(Cl)cc1)=N[C@@H](CC(=O)OC(C)(C)C)c1nnc(C)n1-2 [JQ1]
- inhibition effect (anticancer activity) (PDAC cell lines): varies among different cell types
- METTL3 RNA level (METTL3 in 8902 cell line): moderate effect
- METTL3 protein level (METTL3 in 8902 cell line): less of an effect
- polyA RNA m^6A ([1]; JQ1-sensitive PDAC cells, versus DMSO control): dramatically decreased
- polyA RNA m^6A level ([1]; Mia cell (JQ1-sensitive), dose-dependent): dramatic decreases
- effect of JQ1 treatment upon overexpression of METTL3 in JQ1-sensitive cell (JQ1-sensitive PDAC cells): inhibits
- viability of JQ1-insensitive cells, knockdown of METTL3 together with JQ1 treatment [2]: synergistically reduce
- polyA RNA m^6A, JQ1 treatment after METTL3 knockdown ([3]; 8902 cell line (JQ1-insensitive)): further reduced
- polyA RNA m^6A changes ([3]; JQ1-insensitive PDAC cells, versus DMSO control): moderate to negligible
- METTL3 RNA level (METTL3 in Mia cell): dramatic decreases
- METTL3 protein level (METTL3 in Mia cell): dramatic decreases
